Laboratory results: patent publication US20150239889A1, “PYRAZOLOPYRIMIDINE COMPOUND” (MITSUBISHI TANABE PHARMA CORPORATION, priority 2012, published 2015)

Columns and labels:
human HIF-PHD2 = molecular target: T1, human HIF-PHD2 (Homo sapiens, UniProt Q9GZT9); assay: HIF-PHD inhibition assay (fluorescence polarization), human HIF-PHD2; type: biochemical; details: 2-oxoglutaric acid 3.33 μmol/L
T1 construct: purchased CrystalGenomics Ltd
Outline: (§1)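 A 5′-fluoresceinamide-labelled substrate with aminocaproic acid linker is used. Enzyme activity is computed by subtracting pre-enzyme polarization from post-enzyme polarization, expressed in mP.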

human HIF-PHD3 = molecular target: T2, human HIF-PHD3 (Homo sapiens, UniProt Q9H6Z9); assay: HIF-PHD inhibition assay (fluorescence polarization), human HIF-PHD3; type: biochemical; details: 2-oxoglutaric acid 166 μmol/L
T2 construct: purchased CrystalGenomics Ltd
Outline: as §1

T1 sequence (Q9GZT9 2-426 limits assumed): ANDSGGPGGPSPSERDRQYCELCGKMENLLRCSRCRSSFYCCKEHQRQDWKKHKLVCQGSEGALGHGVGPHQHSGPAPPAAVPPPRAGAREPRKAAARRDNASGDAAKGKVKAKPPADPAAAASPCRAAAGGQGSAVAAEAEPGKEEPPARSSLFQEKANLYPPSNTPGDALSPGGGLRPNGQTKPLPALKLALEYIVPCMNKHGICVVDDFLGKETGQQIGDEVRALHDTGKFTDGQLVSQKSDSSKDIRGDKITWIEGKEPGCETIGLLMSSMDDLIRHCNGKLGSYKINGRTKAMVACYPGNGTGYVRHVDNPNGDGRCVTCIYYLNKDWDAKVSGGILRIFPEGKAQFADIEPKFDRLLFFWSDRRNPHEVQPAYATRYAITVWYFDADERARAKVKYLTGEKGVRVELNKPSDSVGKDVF
T2 sequence (Q9H6Z9 whole entry): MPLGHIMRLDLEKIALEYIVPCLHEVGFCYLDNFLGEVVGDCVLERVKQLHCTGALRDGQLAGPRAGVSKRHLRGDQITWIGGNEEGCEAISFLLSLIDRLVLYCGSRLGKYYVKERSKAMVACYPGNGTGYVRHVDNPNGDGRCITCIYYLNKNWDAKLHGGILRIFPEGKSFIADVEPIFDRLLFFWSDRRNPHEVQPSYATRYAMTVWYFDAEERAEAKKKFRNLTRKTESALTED

| Compound | IC50 (human HIF-PHD2) [nM] | IC50 (human HIF-PHD3) [nM] |
| --- | --- | --- |
| CC[C@@H](c1ccc(OC(F)(F)F)c(Cl)c1)n1ncc2nc(-n3cc(C(=O)O)cn3)nc(O)c21 [Example 353] | 14 | 490 |
| CC(C)C(c1ccc(F)cc1)n1ncc2nc(-n3cc(C(=O)O)cn3)nc(O)c21 (centres unmarked) [Example 354] | 140 | 680 |
| CC(C)C(c1ccc(C(F)(F)F)cc1)n1ncc2nc(-n3cc(C(=O)O)cn3)nc(O)c21 (centres unmarked) [Example 356] | 53 | 710 |
| CC(C)C(c1ccc(F)c(F)c1)n1ncc2nc(-n3cc(C(=O)O)cn3)nc(O)c21 (centres unmarked) [Example 358] | 45 | 700 |
| CC(C)C(c1cc(F)cc(F)c1)n1ncc2nc(-n3cc(C(=O)O)cn3)nc(O)c21 (centres unmarked) [Example 360] | 64 | 770 |
| CC(C)C(c1cccc(C(F)(F)F)c1)n1ncc2nc(-n3cc(C(=O)O)cn3)nc(O)c21 (centres unmarked) [Example 362] | 100 | 1500 |
| O=C(O)c1cnn(-c2nc(O)c3c(cnn3C(c3ccc(Cl)cc3)C3CC3)n2)c1 (centres unmarked) [Example 364] | 39 | 780 |
| O=C(O)c1cnn(-c2nc(O)c3c(cnn3C(c3ccc(F)cc3)C3CC3)n2)c1 (centres unmarked) [Example 366] | 120 | 540 |
| Cc1ccc(C(C2CC2)n2ncc3nc(-n4cc(C(=O)O)cn4)nc(O)c32)cc1 (centres unmarked) [Example 368] | 72 | 410 |
| O=C(O)c1cnn(-c2nc(O)c3c(cnn3C(c3ccc(F)c(Cl)c3)C3CC3)n2)c1 (centres unmarked) [Example 370] | 56 | 380 |
| O=C(O)c1cnn(-c2nc(O)c3c(cnn3C(c3cc(F)cc(F)c3)C3CC3)n2)c1 (centres unmarked) [Example 372] | 45 | 720 |
| O=C(O)c1cnn(-c2nc(O)c3c(cnn3C(c3cccc(Cl)c3)C3CC3)n2)c1 (centres unmarked) [Example 374] | 51 | 630 |
| Cc1cc(C(C2CC2)n2ncc3nc(-n4cc(C(=O)O)cn4)nc(O)c32)ccc1F (centres unmarked) [Example 376] | 72 | 770 |
| C[C@@H](C1CCC(C)(C)CC1)n1ncc2nc(-n3cc(C(=O)O)cn3)nc(O)c21 [Example 382] | 15 | 410 |
| C[C@H](C1CCC(C)(C)CC1)n1ncc2nc(-n3cc(C(=O)O)cn3)nc(O)c21 [Example 383] | 110 | 570 |
| C[C@H]1CC[C@H](n2ncc3nc(-n4cc(C(=O)O)cn4)nc(O)c32)CC1 [Example 384] | 60 | 500 |
| C[C@H]1CC[C@@H](n2ncc3nc(-n4cc(C(=O)O)cn4)nc(O)c32)CC1 [Example 385] | 130 | 380 |
| CC1(C)CCC(n2ncc3nc(-n4cc(C(=O)O)cn4)nc(O)c32)CC1 [Example 386] | 38 | 840 |
| CC1(C)CC(n2ncc3nc(-n4cc(C(=O)O)cn4)nc(O)c32)CC(C)(C)C1 [Example 387] | 30 | 780 |
| CC[C@H]1CC[C@H](n2ncc3nc(-n4cc(C(=O)O)cn4)nc(O)c32)CC1 [Example 388] | 47 | 510 |
| CC(C)[C@H]1CC[C@H](n2ncc3nc(-n4cc(C(=O)O)cn4)nc(O)c32)CC1 [Example 389] | 76 | 790 |
| CC(C)[C@H]1CC[C@@H](n2ncc3nc(-n4cc(C(=O)O)cn4)nc(O)c32)CC1 [Example 390] | 28 | 660 |

| Compound | IC50 (human HIF-PHD2) [nM] | IC50 (human HIF-PHD3) [nM] |
| --- | --- | --- |
| CC(C)(C)[C@H]1CC[C@@H](n2ncc3nc(-n4cc(C(=O)O)cn4)nc(O)c32)CC1 [Example 391] | 72 | 1100 |
| O=C(O)c1cnn(-c2nc(O)c3c(cnn3C3CCC(F)(F)CC3)n2)c1 [Example 392] | 42 | 1300 |
| O=C(O)c1cnn(-c2nc(O)c3c(cnn3C3CCCCCC3)n2)c1 [Example 393] | 41 | 310 |
| O=C(O)c1cnn(-c2nc(O)c3c(cnn3C3CCCCCCC3)n2)c1 [Example 394] | 33 | 420 |
| O=C(O)c1cnn(-c2nc(O)c3c(cnn3C3Cc4ccccc4C3)n2)c1 [Example 395] | 64 | 430 |
| O=C(O)c1cnn(-c2nc(O)c3c(cnn3[C@@H]3CCc4ccccc43)n2)c1 [Example 396] | 47 | 340 |
| O=C(O)c1cnn(-c2nc(O)c3c(cnn3[C@H]3CCc4ccccc43)n2)c1 [Example 397] | 46 | 720 |
| CC1CCCC(n2ncc3nc(-n4cc(C(=O)O)cn4)nc(O)c32)C1 (centres unmarked) [Example 398] | 52 | 1400 |
| CC1CCCC(n2ncc3nc(-n4cc(C(=O)O)cn4)nc(O)c32)C1 (centres unmarked) [Example 400] | 23 | 600 |
| C[C@@H]1C[C@H](C)C[C@@H](n2ncc3nc(-n4cc(C(=O)O)cn4)nc(O)c32)C1 [Example 402] | 24 | 710 |
| CC(C)[C@@H]1CC[C@@H](C)C[C@@H]1n1ncc2nc(-n3cc(C(=O)O)cn3)nc(O)c21 [Example 403] | 140 | 940 |
| CC(C)[C@H]1CC[C@H](C)C[C@H]1n1ncc2nc(-n3cc(C(=O)O)cn3)nc(O)c21 [Example 404] | 81 | 840 |
| CC(C)[C@H]1CC[C@H](C)[C@H](n2ncc3nc(-n4cc(C(=O)O)cn4)nc(O)c32)C1 [Example 405] | 110 | 460 |
| CC(C)[C@@H]1CC[C@@H](C)[C@@H](n2ncc3nc(-n4cc(C(=O)O)cn4)nc(O)c32)C1 [Example 406] | 170 | 680 |
| CC1CC(n2ncc3nc(-n4cc(C(=O)O)cn4)nc(O)c32)CC(C)(C)C1 (centres unmarked) [Example 407] | 37 | 460 |
| CC1CC(n2ncc3nc(-n4cc(C(=O)O)cn4)nc(O)c32)CC(C)(C)C1 (centres unmarked) [Example 409] | 49 | 420 |
| CC1(C)CCCC(n2ncc3nc(-n4cc(C(=O)O)cn4)nc(O)c32)C1 (centres unmarked) [Example 411] | 40 | 550 |
| CCC1CCCC(n2ncc3nc(-n4cc(C(=O)O)cn4)nc(O)c32)C1 (centres unmarked) [Example 413] | 42 | 680 |
| CCC1CCCC(n2ncc3nc(-n4cc(C(=O)O)cn4)nc(O)c32)C1 (centres unmarked) [Example 415] | 40 | 690 |
| CC1(C)CCCC1n1ncc2nc(-n3cc(C(=O)O)cn3)nc(O)c21 (centres unmarked) [Example 417] | 70 | 1300 |
| CC1(C)CC(=O)N(c2ccc(Cn3ncc4nc(-n5cc(C(=O)O)cn5)nc(O)c43)cc2)C1 [Example 420] | 62 | 490 |
| O=C(O)c1cnn(-c2nc(O)c3c(cnn3Cc3ccc(N4CCC(C(F)(F)F)CC4)cc3)n2)c1 [Example 422] | 38 | 420 |

| Compound | IC50 (human HIF-PHD2) [nM] | IC50 (human HIF-PHD3) [nM] |
| --- | --- | --- |
| O=C(O)c1cnn(-c2nc(O)c3c(cnn3C[C@@H]3CCN(c4ccc(C(F)(F)F)cc4)C3)n2)c1 [Example 426] | 15 | 140 |
| O=C(O)c1cnn(-c2nc(O)c3c(cnn3C[C@H]3CCN(c4ccc(C(F)(F)F)cc4)C3)n2)c1 [Example 427] | 25 | 310 |
| O=C(O)c1cnn(-c2nc(O)c3c(cnn3C[C@H]3CCN(c4ccc(Cl)cc4)C3)n2)c1 [Example 428] | 21 | 230 |
| O=C(O)c1cnn(-c2nc(O)c3c(cnn3C[C@H]3CCN(c4cccc(C(F)(F)F)c4)C3)n2)c1 [Example 429] | 22 | 540 |
| O=C(O)c1cnn(-c2nc(O)c3c(cnn3C[C@H]3CCN(c4cccc(Cl)c4)C3)n2)c1 [Example 430] | 19 | 240 |
| C[C@@H](C1CCN(c2ccc(C(F)(F)F)cc2)CC1)n1ncc2nc(-n3cc(C(=O)O)cn3)nc(O)c21 [Example 431] | 17 | 280 |
| C[C@@H](C1CCN(c2ccc(Cl)cc2)CC1)n1ncc2nc(-n3cc(C(=O)O)cn3)nc(O)c21 [Example 432] | 17 | 270 |
| C[C@@H](C1CCN(c2ccc(OC(F)(F)F)cc2)CC1)n1ncc2nc(-n3cc(C(=O)O)cn3)nc(O)c21 [Example 433] | 31 | 540 |
| C[C@@H](C1CCN(c2cccc(C(F)(F)F)c2)CC1)n1ncc2nc(-n3cc(C(=O)O)cn3)nc(O)c21 [Example 434] | 28 | 420 |
| C[C@@H](C1CCN(c2cccc(Cl)c2)CC1)n1ncc2nc(-n3cc(C(=O)O)cn3)nc(O)c21 [Example 435] | 15 | 170 |
| O=C(O)c1cnn(-c2nc(O)c3c(cnn3C3CCN(c4ccc(C(F)(F)F)cc4)CC3)n2)c1 [Example 436] | 10 | 330 |
| O=C(O)c1cnn(-c2nc(O)c3c(cnn3[C@H]3CCN(c4ccc(C(F)(F)F)cc4)C3)n2)c1 [Example 437] | 2.5 | 180 |
| O=C(O)c1cnn(-c2nc(O)c3c(cnn3[C@H]3CCN(c4ccc(Cl)c(Cl)c4)C3)n2)c1 [Example 438] | 13 | 140 |
| Cc1ccc([C@H](C)n2nc(F)c3nc(-n4cc(C(=O)O)cn4)nc(O)c32)cc1C [Example 441] | 60 | 430 |
| Cc1nn(Cc2ccc3ccccc3c2)c2c(O)nc(-n3cc(C(=O)O)cn3)nc12 [Example 445] | 20 | 400 |
| Cc1nn([C@@H](C)c2ccc(F)cc2)c2c(O)nc(-n3cc(C(=O)O)cn3)nc12 [Example 448] | 62 | 1900 |
| Cc1nn([C@@H](C)c2cccc(F)c2)c2c(O)nc(-n3cc(C(=O)O)cn3)nc12 [Example 449] | > 300 | 1200 |
| Cc1nn([C@@H](C)c2ccc(F)c(F)c2)c2c(O)nc(-n3cc(C(=O)O)cn3)nc12 [Example 450] | 64 | 580 |
| Cc1nn([C@@H](C)c2ccc(F)cc2F)c2c(O)nc(-n3cc(C(=O)O)cn3)nc12 [Example 451] | 91 | 840 |
| Cc1nn([C@@H](C)c2ccc(F)cc2Cl)c2c(O)nc(-n3cc(C(=O)O)cn3)nc12 [Example 452] | 110 | 1600 |
